Data reported in ChEMBL document CHEMBL1201862, “PubChem BioAssay data set” (2004).
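Dose response: 5 concentrations. Exposure: 48 h. Format: 96-well plates. Endpoint: linear interpolation; highest concentration if not reached. GI50: concentration for 50% inhibition of growth.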 Active and inactive are the calls of the source. Cut-off read from the data, not from the text of the source: active = GI50 up to about 1.1 µM and inactive = higher.

Key:
Assay in all cases: NCI anticancer screen, dose series, 48 h
[1] = test system: EKVX
[2] = test system: UO-31
[3] = test system: OVCAR-8
[4] = test system: SNB-75
[5] = test system: SK-OV-3
[6] = test system: IGROV-1
[7] = test system: UACC-62
[8] = test system: OVCAR-3
[9] = test system: LOX IMVI
[10] = test system: U-251
[11] = test system: RPMI-8226
[12] = test system: Malme-3M
[13] = test system: UACC-257
[14] = test system: SF-295
[15] = test system: HCC 2998
[16] = test system: SR

Measured: GI50

O=C1OC(c2ccccc2)=N/C1=C\c1c(O)cc(O)cc1O
inactive: [1] > 100 µM | [2] > 100 µM | [3] > 100 µM | [4] > 100 µM | [5] > 100 µM | [6] > 100 µM | [7] 27.9 µM | [8] > 100 µM | [9] 78.3 µM | [10] > 100 µM | [11] > 100 µM | [12] > 100 µM | [13] > 100 µM

C/N=c1\ss/c(=N\C(=S)N(C)C)n1C1CCCCC1
inactive: [1] > 31.6 µM | [2] > 31.6 µM | [3] > 31.6 µM | [4] > 10 µM | [5] 24.2 µM | [6] > 31.6 µM | [14] > 31.6 µM | [7] > 31.6 µM | [8] > 31.6 µM | [9] > 31.6 µM | [15] > 31.6 µM | [10] > 31.6 µM | [11] > 100 µM | [12] > 31.6 µM | [13] > 31.6 µM

CCOC(=O)c1nc2ccc([N+](=O)[O-])cc2c2c1CCO2
inactive: [1] > 100 µM | [3] > 100 µM | [4] 41.3 µM | [5] > 100 µM | [6] > 100 µM | [14] > 100 µM | [7] > 100 µM | [8] > 100 µM | [9] > 100 µM | [15] > 100 µM | [10] > 100 µM | [12] > 100 µM | [13] > 100 µM

CC(C)CCS(=O)(=O)OCCCCOS(=O)(=O)CCC(C)C
inactive: [1] > 100 µM | [2] > 100 µM | [3] > 100 µM | [4] > 100 µM | [5] > 100 µM | [6] > 100 µM | [14] > 100 µM | [7] > 100 µM | [8] 16.4 µM | [9] > 100 µM | [15] > 100 µM | [10] > 100 µM | [16] > 100 µM | [11] > 100 µM | [12] > 100 µM | [13] > 100 µM

NNC(=O)/C(NC(=O)c1ccccc1)=C(\N)c1ccc(Cl)cc1
inactive: [1] > 100 µM | [2] > 100 µM | [3] > 100 µM | [4] > 100 µM | [5] > 100 µM | [6] > 100 µM | [14] > 100 µM | [7] > 100 µM | [8] > 100 µM | [9] > 100 µM | [15] > 100 µM | [10] > 100 µM | [16] 83.8 µM | [11] 73.5 µM | [12] > 100 µM | [13] > 100 µM

Cc1c(C(=O)CC(=O)C(=O)NC2C3CC4CC(C3)CC2C4)[n+]([O-])c2ccccc2[n+]1[O-] (centres undefined)
inactive: [1] > 100 µM | [2] > 100 µM | [3] > 100 µM | [4] > 100 µM | [5] > 100 µM | [6] > 100 µM | [14] > 100 µM | [7] > 100 µM | [8] 24 µM | [9] > 100 µM | [15] > 100 µM | [10] > 100 µM | [16] > 100 µM | [11] > 100 µM | [12] > 100 µM | [13] > 100 µM

c1ccc(OCc2nnc3n2N=C(c2ccccc2)CS3)cc1
inactive: [2] 23 µM | [3] > 100 µM | [4] 33 µM | [5] > 100 µM | [6] > 100 µM | [14] > 100 µM | [7] > 100 µM | [8] > 100 µM | [9] > 100 µM | [15] > 100 µM | [10] > 100 µM | [16] > 100 µM | [11] > 100 µM | [12] > 100 µM | [13] > 100 µM

CCOC(=O)c1cnc2sc3ccc4ccccc4c3n2c1=O
inactive: [1] 74 µM | [2] 23.9 µM | [3] 48.6 µM | [4] > 100 µM | [5] 78.5 µM | [6] 42.5 µM | [14] 58.9 µM | [7] 77.6 µM | [8] 82.2 µM | [9] 47.9 µM | [15] > 100 µM | [10] 94 µM | [16] 40.1 µM | [11] 27.9 µM | [12] 63.2 µM | [13] 87.9 µM

c1ccc(C2=NOC3(c4ccccc4)SC4CCCCC4CN23)cc1 (centres undefined)
inactive: [1] 57.9 µM | [2] 27.5 µM | [4] 18.2 µM | [5] 77.4 µM | [6] 14.7 µM | [14] 28.1 µM | [7] 25 µM | [8] 39.4 µM | [9] 17 µM | [15] 55.1 µM | [10] 15.2 µM | [16] 25 µM | [11] 22 µM | [12] 29.8 µM | [13] 38.5 µM

O=[N+]([O-])c1ccc2nc(/C(=N\Nc3ccccc3)C(O)c3ccc4c(c3)OCO4)c(O)nc2c1 (centres undefined)
inactive: [1] > 100 µM | [2] 79.3 µM | [3] > 100 µM | [4] 60 µM | [5] > 100 µM | [6] 7.74 µM | [14] > 100 µM | [7] 34 µM | [8] > 100 µM | [9] > 100 µM | [15] 75.2 µM | [10] > 100 µM | [16] 91.6 µM | [11] 86.1 µM | [12] > 100 µM | [13] > 100 µM

COc1ccc2c(c1)[n+]([O-])c(-c1ccc(C)cc1)c(N)[n+]2[O-]
inactive: [1] 67.8 µM | [2] 55.1 µM | [3] 66.2 µM | [4] 45.1 µM | [5] > 100 µM | [6] 43.3 µM | [14] > 100 µM | [8] 31 µM | [10] 54.7 µM | [16] > 100 µM | [11] 75.5 µM | [12] 76.2 µM | [13] 23.6 µM

O=C(Nc1cc(Cl)ccc1Cl)C(=O)C(c1cnc2ccccc2n1)[N+](=O)[O-] (centres undefined)
inactive: [1] > 100 µM | [2] > 100 µM | [3] > 100 µM | [4] > 100 µM | [5] > 100 µM | [6] > 100 µM | [14] > 100 µM | [7] > 100 µM | [8] > 100 µM | [9] > 100 µM | [15] > 100 µM | [10] > 100 µM | [16] > 100 µM | [11] > 100 µM | [12] > 100 µM | [13] > 100 µM

O=C1CCC(=O)C(C(=O)CCC(=O)Nc2ccc(Cl)cc2)C1 (centres undefined)
inactive: [1] > 100 µM | [2] > 100 µM | [3] > 100 µM | [5] > 100 µM | [6] > 100 µM | [14] > 100 µM | [7] > 100 µM | [8] > 100 µM | [9] > 100 µM | [15] > 100 µM | [10] > 100 µM | [11] > 100 µM | [12] > 100 µM | [13] > 100 µM

N#CC1(C#N)C(c2ccc(C3C(C#N)(C#N)C3(C#N)C#N)cc2)C1(C#N)C#N
inactive: [1] > 100 µM | [2] > 100 µM | [3] > 100 µM | [4] > 100 µM | [5] > 100 µM | [6] > 100 µM | [14] > 100 µM | [7] > 100 µM | [8] > 100 µM | [9] > 100 µM | [15] > 100 µM | [10] > 100 µM | [11] > 100 µM | [12] > 100 µM | [13] > 100 µM

Oc1cc(Cl)ncn1
inactive: [1] > 100 µM | [2] > 100 µM | [3] > 100 µM | [4] > 100 µM | [5] > 100 µM | [6] > 100 µM | [14] > 100 µM | [7] > 100 µM | [8] > 100 µM | [9] > 100 µM | [15] > 100 µM | [10] > 100 µM | [11] > 100 µM | [12] > 100 µM | [13] > 100 µM

CC1=C2[C@H](c3ccccc3)C3C=CC2(c2ccccc23)N(C(=O)C(c2ccccc2)c2ccccc2)C1=O (some centres undefined)
inactive: [1] > 100 µM | [2] > 100 µM | [3] > 100 µM | [4] > 100 µM | [5] > 100 µM | [6] > 100 µM | [14] > 100 µM | [7] > 100 µM | [8] > 100 µM | [9] > 100 µM | [15] > 100 µM | [10] > 100 µM | [16] > 100 µM | [12] > 100 µM | [13] > 100 µM

N#C/N=C(\N)NCCO
inactive: [1] > 100 µM | [2] > 100 µM | [3] > 100 µM | [4] > 100 µM | [5] > 100 µM | [6] > 100 µM | [14] > 100 µM | [7] > 100 µM | [8] > 100 µM | [15] > 100 µM | [10] 37.2 µM | [16] 30.7 µM | [11] > 100 µM | [12] > 100 µM | [13] > 100 µM

Cc1c(C2Cc3ccccc3N2C(=O)/C=C\C(=O)O)c2ccccc2n1C (centres undefined)
inactive: [1] 30.2 µM | [2] 20.4 µM | [3] 18.5 µM | [4] 21.8 µM | [5] 23.4 µM | [6] 24.4 µM | [14] 24.4 µM | [7] 16.9 µM | [8] 17.5 µM | [9] 16.9 µM | [15] 21.4 µM | [10] 20.1 µM | [16] 30.1 µM | [12] 15.9 µM | [13] 16.2 µM
